Consider four compounds from ChEMBL document CHEMBL1147251, “Crambescidin 826 and dehydrocrambine A: new polycyclic guanidine alkaloids from the marine sponge Monanchora sp. that inhibit HIV-1 fusion” (J Nat Prod, 2003).

Calls of active or inactive are those of the source. The calls are words filed in the database; no cut-off is given here.

Assay [1] can be described thus: Inhibition of HIV1 LAV gp120 binding to CD4 assessed as inhibition of CD4 expressing african green monkey BSC1 cells fusion to CXCR4 expressing mouse NIH3T3 cells after 2.5 hrs by beta-galactosidase assay. In kind it is cell-based, Human immunodeficiency virus 1.
Assay [2] can be described thus: Inhibition of HIV1 SF162 gp120 binding to CD4 assessed as inhibition of CD4 expressing african green monkey BSC1 cells fusion to CCR5 expressing mouse NIH3T3 cells after 2.5 hrs by beta-galactosidase assay. In kind it is cell-based, Human immunodeficiency virus 1.
The test system of assay [3] is NIH3T3. As to the kind of experiment: Inhibition of HIV1 LAV gp120 binding to CD4 assessed as inhibition of CD4 expressing african green monkey BSC1 cells fusion to CXCR4 expressing mouse NIH3T3 cells treated after 15 to 90 mins of fusion measured after 2.5 hrs by beta-galactosidase assay. In kind it is cell-based. The following applies: Human immunodeficiency virus 1.

In assay [4] the test system is NIH3T3. In words: Inhibition of HIV1 SF162 gp120 binding to CD4 assessed as inhibition of CD4 expressing african green monkey BSC1 cells fusion to CCR5 expressing mouse NIH3T3 cells treated after 15 to 90 mins of fusion measured after 2.5 hrs by beta-galactosidase assay. In kind it is cell-based. The following applies: Human immunodeficiency virus 1.

Consider `CC[C@H]1C=CCC[C@@]2(C[C@@H]3CC[C@@H]4[C@H](C(=O)OCCCCCCCCCCCCCCCC5=NCCCN5CC(O)CCN)[C@]5(CCC[C@@H](C)O5)N=C(N2)N34)O1` (stereo not given in full) [FROMIAMYCALIN], for which the concentration for half-maximal inhibition (IC50) in assay [1] and in assay [2] was 1 µM each time.

Consider `CCCCCCCCCCCc1nc(=N)n2c(c1C(=O)OCCCCNC(=N)N)CCC2` [DEHYDROCRAMBINE A], for which the IC50 in assay [1] and in assay [2] was 35 µM throughout.

Consider `CC[C@H]1C=CCC[C@@]2(C[C@@H]3CC[C@@H]4[C@H](C(=O)OCCCCCCCCCCCCCCCCCC(=O)N(CCCN)CCCC(N)=O)[C@]5(CCC[C@@H](C)O5)N=C(N2)N34)O1` [CRAMBESCIDIN 826], for which the concentration for half-maximal inhibition (IC50) in assay [1] and in assay [2] was 1 µM in each case.

As to `CC[C@H]1CCCC[C@@]2(C[C@@H]3CC[C@@H]4[C@H](C(=O)OCCCCCCCCCCCCCCCC(=O)N(CCCN)C[C@@H](O)CCN)[C@]5(CCC[C@@H](C)O5)N=C(N2)N34)O1` [CRAMBESCIDIN 800], the IC50 in assay [1] and in assay [2] was 1 µM throughout. In addition, the result in the assay with NIH3T3 [3] and in the assay with NIH3T3 [4] was inactive.

A word on the IC50: it is the concentration at which inhibition is half-maximal.
